Kd data for one compound are collected here from publication PMC3210414 (Nature structural & molecular biology, 2011).

The term Kd denotes the constant that tells how readily two partners part at equilibrium. Low values mean tighter binding, high ones weaker binding.

Experiment [1] addresses EF-Tu (T. thermophilus) (Thermus thermophilus, UniProt Q5SHN6). Put plainly: nitrocellulose filter binding with [3H]GDP.
Experiment [2] deals with EF-Tu (T. thermophilus) (Thermus thermophilus, UniProt Q5SHN6, T395C). Put plainly: nitrocellulose filter binding with [3H]GDP.

Molecules are shown by their SMILES.

Consider `Nc1nc2c(ncn2[C@@H]2O[C@H](COP(=O)(O)OP(=O)(O)O)[C@@H](O)[C@H]2O)c(=O)[nH]1` [GDP], for which the Kd on EF-Tu (T. thermophilus) [1] was 7 nM; at EF-Tu (T. thermophilus) [2], 11 nM.
